Measured values published in patent US9650417B2, “Treatments for gastrointestinal disorders” (Ironwood Pharmaceuticals, Inc., priority 2011, dated 2017).
Bridge positions count the residues as written; N and C are the ends. Square brackets hold non-standard residues; d marks the D form. Peptide text beside a SMILES is read from it. pS = N[C@@H](COP(=O)(O)O)C(=O)O

Columns and labels:
[1] = oral administration at therapeutic dose levels; cited from earlier work
[2] = target: T1, GC-C (Homo sapiens, UniProt P25092); assay: cGMP accumulation in T84 cells for analysis of GC-C activity; type: cell-based
T1 construct: endogenous in cells; host or cells: T84 cells
T1 sequence (P25092 24-1073): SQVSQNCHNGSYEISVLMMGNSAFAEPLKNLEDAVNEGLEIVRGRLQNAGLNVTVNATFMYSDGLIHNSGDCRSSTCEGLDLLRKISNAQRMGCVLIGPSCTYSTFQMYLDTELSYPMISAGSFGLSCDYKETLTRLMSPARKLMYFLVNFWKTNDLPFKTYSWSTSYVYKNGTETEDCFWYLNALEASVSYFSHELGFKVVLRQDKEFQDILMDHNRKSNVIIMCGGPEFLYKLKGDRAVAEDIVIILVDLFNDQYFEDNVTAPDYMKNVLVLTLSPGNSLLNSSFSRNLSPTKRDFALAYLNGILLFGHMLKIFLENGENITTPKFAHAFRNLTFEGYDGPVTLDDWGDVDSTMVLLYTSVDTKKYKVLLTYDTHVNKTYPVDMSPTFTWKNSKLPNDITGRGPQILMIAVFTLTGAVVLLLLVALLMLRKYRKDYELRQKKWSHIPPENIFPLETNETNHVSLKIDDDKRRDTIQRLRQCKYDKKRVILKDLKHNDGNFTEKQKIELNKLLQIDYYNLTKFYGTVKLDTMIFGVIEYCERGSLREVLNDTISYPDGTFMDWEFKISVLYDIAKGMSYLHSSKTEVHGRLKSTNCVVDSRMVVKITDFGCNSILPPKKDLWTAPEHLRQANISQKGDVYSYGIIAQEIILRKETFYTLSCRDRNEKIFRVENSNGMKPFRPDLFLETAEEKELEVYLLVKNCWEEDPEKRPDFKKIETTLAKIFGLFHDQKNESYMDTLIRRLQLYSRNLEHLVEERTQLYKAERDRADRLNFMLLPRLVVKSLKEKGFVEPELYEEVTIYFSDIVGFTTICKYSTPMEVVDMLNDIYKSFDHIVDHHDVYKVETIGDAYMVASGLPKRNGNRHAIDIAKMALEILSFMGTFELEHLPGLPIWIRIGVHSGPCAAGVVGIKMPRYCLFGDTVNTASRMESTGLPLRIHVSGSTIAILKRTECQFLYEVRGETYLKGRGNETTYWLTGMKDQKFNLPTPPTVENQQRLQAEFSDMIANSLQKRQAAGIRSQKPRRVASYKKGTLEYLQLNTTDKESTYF
Procedure: For the cGMP assay, 4.5×10^5 cells/mL of T84 cells were grown overnight in 24 well tissue culture plates. […] After the second wash, the cells were incubated with 450 μL of 1 mM isobutylmethylxanthine (IBMX) in either the pH 5 or pH 8 buffers for 10 minutes at 37° C. to inhibit any phosphodiesterase activity. The peptides were then diluted in either pH 5 or pH 8 buffer to a 10× concentration. The peptide solution of 50 μL was diluted to a final volume of 500 μL with the T84 cells, bringing each peptide concentration to 1×. An eleven point curve analysis was conducted for each peptide, with final peptide concentrations tested in each assay, in nM: 10000, 3000, 1000, 300, 100, 30, 10, 3, 1, 0.3, 0.1.
There was no peptide control used to determine endogenous levels of cGMP. Peptides were incubated for 30 minutes at 37° C. After 30 minutes, the supernatants were removed and the cells were lysed with 0.1 M HCl. The cells were lysed for 30 minutes on ice. After 30 minutes, lysates were pipetted off and placed into a 96 well HPLC plate and spun at 10,000×g for 10 minutes to remove any cell debris. […]
cGMP concentrations were determined from each sample using the LC/MS conditions in Table 4 and a calculated standard curve. EC50 values were calculated from concentration-response curves generated with GraphPad Prism Software. […]

[3] = In vitro metabolism in mouse jejunum loop fluid; type: in vitro ADME; details: for metabolism in control reaction: 120 minute incubation; for degradation rate compared with peptide 2: mouse intestinal fluid
Procedure: The purpose of this study was to determine the stability of phosphorylated peptides in mouse jejunal loop fluid. […] The isotopically labeled peptide 2 was synthesized with ^13C, ^15N-labeled alanine and leucine (i.e., with a sequence CCpS[^13C6, ^15N]LCCNP[^13C6, ^15N]ACTGC).
Each peptide was synthesized by American Peptide Company, Inc., and was stored desiccated at −20° C. A 1 mg/mL solution for each of the non-labeled peptides was prepared in 1 M tris(hydroxymethyl)aminomethane hydrochloride (Tris-HCl), pH 8 just prior to conducting the mouse intestinal loop fluid assay. A 500 ng/mL solution of ^13C, ^15N-labeled peptide 2 was prepared in 0.1% formic acid in water and was utilized to dilute the jejunum samples for post-assay LC-MS/MS analysis.
To collect the fluid, mice were fasted overnight with full access to water. They were then anesthetized with isofluorane for surgery and subjected to laparotomy in which the small intestine was exteriorized. Jejunum loops of 3 to 4 cm in length were made with sutures starting at 7 cm from the pyloric sphincter of the stomach. Once the loops were formed, they were injected with 200 μL of phosphate buffered saline (PBS) buffer (10 mM, pH 7.4). The abdominal wall and skin of the animals were then sutured, and the animals were allowed to recover for 30 minutes. Following recovery, the animals were sacrificed, the loops were then excised and the fluid inside was recovered and stored at −80° C. until use.
For each peptide, 25 μL of the 1 mg/mL peptide stock solution was added to 25 μL of 1 M Tris-HCl and 25 μL of 10× calf intestinal phosphatase (CIP) buffer containing 500 mM Tris-HCl, 1 M sodium chloride (NaCl), 0.1 mM magnesium chloride (MgCl2), pH 8. The reactions were initiated by adding 175 μL of the mouse jejunum loop fluid or 175 μL of the 1 M Tris-HCl pH8 buffer for the control reactions. The final concentration of each peptide was 100 μg/mL. The reactions were continuously mixed and maintained at 37° C. on a plate shaker. At 0, 2, 5, 10, 20, 30, 60, 90 and 120 minutes after adding the mouse intestinal loop fluid, a 25 μL aliquot was taken and added to 25 μL of 4° C. 12% trichloroacetic acid to stop the reaction. An additional 200 μL of 0.1% formic acid in water was added to these reactions for dilution purposes. These samples were then further diluted by taking 20 μL of each sample and adding it to 480 μL of 0.1% formic acid in water containing 500 ng/mL of the internal standard 13C, 15N-labeled peptide 2.
All samples were analyzed using an Applied Biosystems/MDS SCIEX API 4000 triple quadrupole mass spectrometer equipped with a high-performance liquid chromatography (HPLC) system. The mass spectrometer was operated in multiple reaction monitoring (MRM) mode, with resolution set to 1.2 Da.
The LC-MS/MS data were processed using Analyst version 1.4.2 software (Applied Biosystems/MDS SCIEX). The peak area ratio (ratio of analyte peak area to internal standard peak area) was used to calculate the percent remaining of each peptide.

[4] = target: T2, Calf intestinal alkaline phosphatase (CIP) (Bos taurus, UniProt P19111); assay: Alkaline phosphatase reaction (dephosphorylation of peptide substrates); type: in vitro ADME; details: with and without calf intestinal alkaline phosphatase; data not shown
T2 construct: purchased New England BioLabs, Ipswich, Mass; MO290S
T2 sequence (P19111 20-506): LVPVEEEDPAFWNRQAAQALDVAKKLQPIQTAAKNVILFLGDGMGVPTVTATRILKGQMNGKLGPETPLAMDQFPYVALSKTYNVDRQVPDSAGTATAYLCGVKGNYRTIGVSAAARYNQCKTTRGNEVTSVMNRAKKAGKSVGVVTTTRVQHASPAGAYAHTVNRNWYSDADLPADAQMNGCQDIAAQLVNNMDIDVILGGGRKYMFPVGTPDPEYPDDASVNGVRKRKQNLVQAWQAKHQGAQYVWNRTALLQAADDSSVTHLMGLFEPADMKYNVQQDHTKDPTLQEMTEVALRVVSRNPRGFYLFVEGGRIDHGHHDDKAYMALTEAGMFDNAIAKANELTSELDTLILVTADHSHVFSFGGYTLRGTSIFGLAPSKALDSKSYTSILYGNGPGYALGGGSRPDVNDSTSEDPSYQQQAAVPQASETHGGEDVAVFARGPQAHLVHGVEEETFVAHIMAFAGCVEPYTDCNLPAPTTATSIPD
Procedure: For the alkaline phosphatase reactions, peptide stocks were prepared at 1 mg/mL in 0.1 M Tris-HCl pH 8, which were stored at −20° C. until assays were conducted. For the acid phosphatase reactions, peptide stocks were prepared at 1 mg/mL in 50 mM sodium phosphate pH 6, which was stored at −20° C. until assays were conducted.
Calf intestinal alkaline phosphatase (CIP) was obtained from New England BioLabs, Ipswich, Mass. Cat # MO290S. The CIP reaction solution was prepared by dilution with buffer (50 mM KCl, 10 mM Tris-HCl pH 8, 1 mM MgCl2, 50% glycerol) to 0.5 units/μL. The alkaline phosphatase reaction solutions were assembled in 20 μL quantities containing:
2 μL 10×CIP buffer (1M NaCl, 500 mM Tris-HCl pH 8, 100 mM MgCl2)
2 μL peptide stock (1 mg/mL)
4 μL alkaline phosphatase (0, 0.5 or 2 units)
The reaction solutions were mixed gently and incubated for 90 minutes at 37° C. These reaction solutions were stored at −20° C. until analysis. For analysis, the reaction solutions were diluted from 7.5 μL of CIP treated peptide to 50 μL with 0.1% formic acid in water to a final concentration of 10 μM.
Control reactions were assembled for enzyme activity containing 10 mM p-nitrophenylphosphate in place of peptide. After incubation, the reactions were diluted with 0.1 mL of 100 mM borate buffer pH 9 and read at the absorbance of 405 nm to monitor p-nitrophenol appearance.

[5] = control reaction (1 M Tris-HCl) at 37° C.

Row | Compound | metabolism in control reaction [3, 5] | degradation rate compared with peptide 2 [3] | also measured
1 | C[C@@H]1NC(=O)[C@@H]2CCCN2C(=O)[C@H](CC(N)=O)NC(=O)[C@@H]2CSSC[C@H](N)C(=O)N[C@H]3CSSC[C@H](NC1=O)C(=O)N[C@@H]([C@@H](C)O)C(=O)NCC(=O)N[C@H](C(=O)N[C@@H](Cc1ccc(O)cc1)C(=O)O)CSSC[C@H](NC(=O)[C@H](Cc1ccc(O)cc1)NC(=O)[C@H](CCC(=O)O)NC3=O)C(=O)N2 [linaclotide, Linaclotide] (H-CCEYCCNPACTGCY-OH; disulfide 1-6, 2-10, 5-13) | – | – | systemic levels after oral administration [1]: no detectable levels
2 | CC(C)C[C@@H]1NC(=O)[C@H](COP(=O)(O)O)NC(=O)[C@@H]2CSSC[C@@H]3NC(=O)[C@H](C)NC(=O)[C@@H]4CCCN4C(=O)[C@H](CC(N)=O)NC(=O)[C@H](CSSC[C@H](NC(=O)[C@H](CC(=O)O)NC(=O)[C@@H](N)CC(=O)O)C(=O)N2)NC(=O)[C@H](CSSC[C@@H](C(=O)N[C@@H](Cc2ccc(O)cc2)C(=O)O)NC(=O)CNC(=O)[C@H]([C@@H](C)O)NC3=O)NC1=O [Peptide 5, DDCCpSLCCNPACTGCY] (H-DDCC[pS]LCCNPACTGCY-OH; disulfide 3-8, 4-12, 7-15 (inferred); N-terminus and C-terminus assumed) | – | – | EC50 [2]: 14.7 nM
3 | CC(C)C[C@@H]1NC(=O)[C@H](CO)NC(=O)[C@@H]2CSSC[C@@H]3NC(=O)[C@H](C)NC(=O)[C@@H]4CCCN4C(=O)[C@H](CC(N)=O)NC(=O)[C@H](CSSC[C@H](N)C(=O)N2)NC(=O)[C@H](CSSC[C@@H](C(=O)O)NC(=O)CNC(=O)[C@H]([C@@H](C)O)NC3=O)NC1=O [Dephospho-Peptide 2, CCSLCCNPACTGC] (H-CCSLCCNPACTGC-OH; disulfide 1-6, 2-10, 5-13 (inferred); N-terminus and C-terminus assumed) | not metabolized | degraded faster | –
4 | CC(C)C[C@@H]1NC(=O)[C@H](COP(=O)(O)O)NC(=O)[C@@H]2CSSC[C@@H]3NC(=O)[C@H](C)NC(=O)[C@@H]4CCCN4C(=O)[C@H](CC(N)=O)NC(=O)[C@H](CSSC[C@H](N)C(=O)N2)NC(=O)[C@H](CSSC[C@@H](C(=O)O)NC(=O)CNC(=O)[C@H]([C@@H](C)O)NC3=O)NC1=O [Peptide 2, CCpSLCCNPACTGC] (H-CC[pS]LCCNPACTGC-OH; disulfide 1-6, 2-10, 5-13 (inferred); N-terminus and C-terminus assumed) | not metabolized | – | formation of metabolite dephospho-peptide 2 in control reaction [3, 5]: no dephospho-peptide 2 was formed
5 | CC(C)C[C@@H]1NC(=O)[C@H](CCC(=O)O)NC(=O)[C@@H]2CSSC[C@@H]3NC(=O)[C@H](C)NC(=O)[C@@H]4CCCN4C(=O)[C@H](CC(N)=O)NC(=O)[C@H](CSSC[C@H](N)C(=O)N2)NC(=O)[C@H](CSSC[C@@H](C(=O)N[C@@H](Cc2ccc(O)cc2)C(=O)O)NC(=O)CNC(=O)[C@H]([C@@H](C)O)NC3=O)NC1=O [Peptide 3, CCELCCNPACTGCY] (H-CCELCCNPACTGCY-OH; disulfide 1-6, 2-10, 5-13 (inferred); N-terminus and C-terminus assumed) | not metabolized | degraded faster | effect of CIP treatment (LC-MS) [4]: not affected; detection of peptide in mouse jejunum fluid ([3]; after 90 minutes, 37° C., 100 μg/mL): not detected
